Data: article PMC7932521, “2-aminobenzimidazoles for leishmaniasis: From initial hit discovery to in vivo profiling” (PLoS Neglected Tropical Diseases, 2021)

How the values were obtained:
Format in all cases: cell-based
5-HT2A = target: T1, 5-HT2A (Homo sapiens, UniProt P28223); experiment: Bioprofiling 6pt Antag 5-HT2A CHO; conditions: antagonist readout vs Serotonin (5-HT)
T1 construct: expressed in transfected cells; host or cells: CHO
Method: (§1) The compounds were evaluated across a panel of 20 liability targets (37 functional assays) which included functional cell-based GPCRs and ion channels in both agonist and antagonist readout, measuring calcium flux and biochemical functional assays for nuclear hormone receptors and phosphodiesterases using TR-FRET format, in a 6 point 1:3 dilution dose series (maximum final concentration of 10 μM).

5-HT2B [1] = target: T2, 5-HT2B (Homo sapiens, UniProt P41595); experiment: Bioprofiling 6pt Antag 5-HT2B CHO; conditions: antagonist readout vs Serotonin (5-HT)
T2 construct: expressed in transfected cells; host or cells: CHO
T2 sequence (P41595 whole entry): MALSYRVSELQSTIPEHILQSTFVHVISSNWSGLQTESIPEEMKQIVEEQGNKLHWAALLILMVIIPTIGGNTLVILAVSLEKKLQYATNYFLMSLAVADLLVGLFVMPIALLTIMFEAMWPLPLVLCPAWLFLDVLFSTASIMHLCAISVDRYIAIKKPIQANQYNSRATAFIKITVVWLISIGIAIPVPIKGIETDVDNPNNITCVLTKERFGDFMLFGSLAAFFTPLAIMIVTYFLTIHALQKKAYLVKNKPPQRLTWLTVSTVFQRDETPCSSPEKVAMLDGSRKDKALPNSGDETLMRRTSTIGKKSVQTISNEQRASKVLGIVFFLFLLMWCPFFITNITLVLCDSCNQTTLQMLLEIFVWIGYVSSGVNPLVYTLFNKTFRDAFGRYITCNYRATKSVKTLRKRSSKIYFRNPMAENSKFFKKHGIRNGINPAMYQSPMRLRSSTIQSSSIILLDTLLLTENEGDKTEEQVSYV
Method: as §1

H1 = target: T3, H1 (Homo sapiens, UniProt P35367); experiment: Bioprofiling 6pt Ag H1 CHO; conditions: agonist readout
T3 construct: expressed in transfected cells; host or cells: CHO
T3 sequence (P35367 whole entry): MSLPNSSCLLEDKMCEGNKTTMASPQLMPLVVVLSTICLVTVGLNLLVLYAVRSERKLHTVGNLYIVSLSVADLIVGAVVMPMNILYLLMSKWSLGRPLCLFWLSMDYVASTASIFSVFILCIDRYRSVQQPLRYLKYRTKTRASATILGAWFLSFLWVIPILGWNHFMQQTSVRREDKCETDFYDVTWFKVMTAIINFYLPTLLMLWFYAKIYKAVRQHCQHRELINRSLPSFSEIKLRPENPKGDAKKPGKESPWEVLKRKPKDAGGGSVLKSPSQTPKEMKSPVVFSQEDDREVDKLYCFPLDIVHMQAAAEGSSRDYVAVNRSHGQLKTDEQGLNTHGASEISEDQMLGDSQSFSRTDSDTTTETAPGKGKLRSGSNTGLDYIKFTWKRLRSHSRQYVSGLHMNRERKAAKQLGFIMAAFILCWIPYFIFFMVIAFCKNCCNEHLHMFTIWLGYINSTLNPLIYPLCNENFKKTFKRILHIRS
Method: as §1

D2L [2] = target: T4, D2L (Homo sapiens, UniProt P14416); experiment: Bioprofiling 6pt Ag D2L CHO; conditions: agonist readout
T4 construct: expressed in transfected cells; host or cells: CHO
T4 sequence (P14416 whole entry): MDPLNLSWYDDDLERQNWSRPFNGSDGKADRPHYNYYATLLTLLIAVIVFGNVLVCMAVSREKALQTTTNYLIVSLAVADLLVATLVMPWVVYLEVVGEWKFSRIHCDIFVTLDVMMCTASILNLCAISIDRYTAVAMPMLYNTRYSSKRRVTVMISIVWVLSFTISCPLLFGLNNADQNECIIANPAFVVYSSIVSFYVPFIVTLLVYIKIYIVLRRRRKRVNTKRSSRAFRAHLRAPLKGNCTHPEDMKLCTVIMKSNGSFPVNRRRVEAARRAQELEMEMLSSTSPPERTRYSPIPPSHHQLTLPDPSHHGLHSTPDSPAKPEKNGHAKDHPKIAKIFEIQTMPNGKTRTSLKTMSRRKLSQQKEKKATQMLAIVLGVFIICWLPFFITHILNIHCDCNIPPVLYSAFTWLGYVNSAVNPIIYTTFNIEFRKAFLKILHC
Method: as §1

ETB [3] = target: T5, ETB (Homo sapiens, UniProt P24530); experiment: Bioprofiling 6pt Ag ETB CHO; conditions: agonist readout
T5 construct: expressed in transfected cells; host or cells: CHO
T5 sequence (P24530 27-442): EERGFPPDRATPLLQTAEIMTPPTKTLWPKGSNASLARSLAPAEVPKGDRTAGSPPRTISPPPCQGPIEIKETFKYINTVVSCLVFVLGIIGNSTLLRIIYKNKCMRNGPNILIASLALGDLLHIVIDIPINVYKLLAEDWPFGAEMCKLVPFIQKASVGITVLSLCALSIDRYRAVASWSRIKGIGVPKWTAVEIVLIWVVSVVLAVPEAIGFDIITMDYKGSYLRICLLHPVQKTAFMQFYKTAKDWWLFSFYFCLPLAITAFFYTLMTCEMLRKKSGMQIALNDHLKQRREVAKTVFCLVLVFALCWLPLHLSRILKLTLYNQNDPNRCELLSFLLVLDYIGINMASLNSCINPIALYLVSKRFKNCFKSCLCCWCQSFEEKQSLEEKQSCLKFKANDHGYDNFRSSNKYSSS
Method: as §1

Alpha2A = target: T6, Alpha2A (Homo sapiens, UniProt P08913); experiment: Bioprofiling 6pt Ag Alpha2A CHO; conditions: agonist readout
T6 construct: expressed in transfected cells; host or cells: CHO
T6 sequence (P08913 1-465): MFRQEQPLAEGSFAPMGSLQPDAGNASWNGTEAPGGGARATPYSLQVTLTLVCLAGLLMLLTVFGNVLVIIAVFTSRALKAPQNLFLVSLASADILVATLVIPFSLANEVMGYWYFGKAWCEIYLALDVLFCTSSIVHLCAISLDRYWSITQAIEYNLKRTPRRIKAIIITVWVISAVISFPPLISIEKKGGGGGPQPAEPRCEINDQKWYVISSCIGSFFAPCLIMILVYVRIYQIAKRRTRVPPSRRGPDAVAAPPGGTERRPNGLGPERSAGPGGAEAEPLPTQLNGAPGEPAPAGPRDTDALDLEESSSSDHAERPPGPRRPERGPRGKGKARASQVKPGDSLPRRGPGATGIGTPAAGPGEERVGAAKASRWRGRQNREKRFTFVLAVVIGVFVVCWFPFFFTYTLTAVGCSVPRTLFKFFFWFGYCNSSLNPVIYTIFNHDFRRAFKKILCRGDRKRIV
Method: as §1

M2 = target: T7, M2 (Homo sapiens, UniProt P08172); experiment: Bioprofiling 6pt Ag M2 CHO; conditions: agonist readout
T7 construct: expressed in transfected cells; host or cells: CHO
T7 sequence (P08172 1-466): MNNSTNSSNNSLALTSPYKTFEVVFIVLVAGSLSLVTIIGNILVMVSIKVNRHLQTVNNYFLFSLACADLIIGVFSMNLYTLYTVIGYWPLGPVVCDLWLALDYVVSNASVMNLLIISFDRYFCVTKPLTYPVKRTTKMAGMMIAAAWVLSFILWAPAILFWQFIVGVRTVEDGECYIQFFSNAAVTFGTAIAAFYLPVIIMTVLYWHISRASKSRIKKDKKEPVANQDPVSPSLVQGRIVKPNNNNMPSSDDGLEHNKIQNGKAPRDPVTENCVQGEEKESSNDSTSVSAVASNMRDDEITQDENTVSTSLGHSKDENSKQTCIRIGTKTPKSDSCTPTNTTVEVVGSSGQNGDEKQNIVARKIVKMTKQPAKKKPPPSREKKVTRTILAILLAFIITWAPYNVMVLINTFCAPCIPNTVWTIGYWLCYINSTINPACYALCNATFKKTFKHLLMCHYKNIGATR
Method: as §1

ETB [4] = target: T5, ETB; experiment: Bioprofiling 6pt Antag ETB CHO; conditions: antagonist readout vs BQ-3020
Method: as §1

D2L [5] = target: T4, D2L; experiment: Bioprofiling 6pt Antag D2L CHO; conditions: antagonist readout vs Quinpirole
Method: as §1

P2Y = experiment: Bioprofiling 6pt Antag P2Y CHO; conditions: antagonist readout vs ATP; read-out: Bioprofiling 6pt Antag P2Y CHO Hamster IC50
Method: as §1

5-HT2B [6] = target: T2, 5-HT2B; experiment: Bioprofiling 6pt Ag 5-HT2B CHO; conditions: agonist readout
Method: as §1

A1 = target: T8, A1 (Homo sapiens, UniProt P30542); experiment: Bioprofiling 6pt Ag A1 CHO; conditions: agonist readout
T8 construct: expressed in transfected cells; host or cells: CHO
T8 sequence (P30542 1-326): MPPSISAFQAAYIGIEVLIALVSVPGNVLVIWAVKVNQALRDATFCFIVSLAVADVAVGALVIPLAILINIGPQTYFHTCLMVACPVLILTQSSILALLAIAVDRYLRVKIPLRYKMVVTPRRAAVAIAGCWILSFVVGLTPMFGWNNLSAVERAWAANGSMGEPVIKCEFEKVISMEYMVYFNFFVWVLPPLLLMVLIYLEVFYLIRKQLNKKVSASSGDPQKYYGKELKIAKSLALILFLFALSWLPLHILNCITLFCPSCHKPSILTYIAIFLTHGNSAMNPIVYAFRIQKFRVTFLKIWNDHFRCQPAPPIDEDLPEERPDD
Method: as §1

5-HT1A = target: T9, 5-HT1A (Homo sapiens, UniProt P08908); experiment: Bioprofiling 6pt Ag 5-HT1A CHO; conditions: agonist readout
T9 construct: expressed in transfected cells; host or cells: CHO
T9 sequence (P08908 1-422): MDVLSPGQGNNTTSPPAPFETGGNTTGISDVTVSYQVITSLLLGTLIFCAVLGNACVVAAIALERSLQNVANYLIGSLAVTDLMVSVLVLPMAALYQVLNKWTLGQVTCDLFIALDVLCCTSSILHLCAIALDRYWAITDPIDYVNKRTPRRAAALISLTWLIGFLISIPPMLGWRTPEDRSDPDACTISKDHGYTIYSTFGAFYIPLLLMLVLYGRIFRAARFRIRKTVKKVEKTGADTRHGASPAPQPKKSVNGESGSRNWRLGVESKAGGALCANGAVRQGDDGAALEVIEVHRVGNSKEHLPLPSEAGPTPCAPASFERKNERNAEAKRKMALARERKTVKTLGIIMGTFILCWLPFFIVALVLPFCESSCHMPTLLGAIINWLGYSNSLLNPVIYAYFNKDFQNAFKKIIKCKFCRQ
Method: as §1

T1 sequence (P28223 whole entry): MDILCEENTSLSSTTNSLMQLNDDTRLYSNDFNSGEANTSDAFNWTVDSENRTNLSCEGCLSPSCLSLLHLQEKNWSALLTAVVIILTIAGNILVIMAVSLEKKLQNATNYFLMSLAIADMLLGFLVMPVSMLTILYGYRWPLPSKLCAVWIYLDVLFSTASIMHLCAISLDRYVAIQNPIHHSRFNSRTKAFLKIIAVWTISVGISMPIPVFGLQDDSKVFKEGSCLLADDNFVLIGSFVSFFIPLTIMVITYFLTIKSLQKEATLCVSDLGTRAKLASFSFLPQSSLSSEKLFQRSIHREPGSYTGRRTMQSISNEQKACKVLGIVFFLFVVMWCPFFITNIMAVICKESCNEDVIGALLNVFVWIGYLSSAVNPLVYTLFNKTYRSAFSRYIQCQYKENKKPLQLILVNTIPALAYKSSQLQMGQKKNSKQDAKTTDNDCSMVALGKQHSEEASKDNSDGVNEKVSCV

N#Cc1ccc2nc(NC(=O)c3ccc(C(F)(F)F)nc3)n(CC(F)(F)F)c2c1 [Compound 45, O=C(c1ccc(C(F)(F)F)nc1)Nc2nc(ccc(C#N)c3)c3n2CC(F)(F)F]
> 10 µM: IC50 (5-HT2A) | IC50 (5-HT2B [1]) | EC50 (H1) | EC50 (D2L [2]) | EC50 (ETB [3]) | EC50 (Alpha2A) | EC50 (M2) | IC50 (ETB [4]) | IC50 (D2L [5]) | IC50 (P2Y) | EC50 (5-HT2B [6]) | EC50 (A1) | EC50 (5-HT1A)

Cn1nc(C(F)(F)F)cc1C(=O)Nc1nc2ccc(C#N)cc2n1CC(F)(F)F [Compound 39, O=C(c1cc(C(F)(F)F)nn1C)Nc2nc(ccc(C#N)c3)c3n2CC(F)(F)F]
> 10 µM: IC50 (5-HT2A) | IC50 (5-HT2B [1]) | EC50 (H1) | EC50 (D2L [2]) | EC50 (ETB [3]) | EC50 (Alpha2A) | EC50 (M2) | IC50 (ETB [4]) | IC50 (D2L [5]) | IC50 (P2Y) | EC50 (5-HT2B [6]) | EC50 (A1) | EC50 (5-HT1A)

Cn1nccc1C(=O)Nc1nc2ccc(C#N)cc2n1CC(C)(C)C [Compound 29, O=C(Nc1n(CC(C)(C)C)c(c2n1)cc(C#N)cc2)c3n(C)ncc3]
> 10 µM: IC50 (5-HT2A) | IC50 (5-HT2B [1]) | EC50 (H1) | EC50 (D2L [2]) | EC50 (ETB [3]) | EC50 (Alpha2A) | EC50 (M2) | IC50 (ETB [4]) | IC50 (D2L [5]) | IC50 (P2Y) | EC50 (5-HT2B [6]) | EC50 (A1) | EC50 (5-HT1A)

N#Cc1ccc2nc(NC(=O)c3ccnc(C(F)(F)F)c3)n(CC(F)(F)F)c2c1 [Compound 44, O=C(c1ccnc(C(F)(F)F)c1)Nc2nc(ccc(C#N)c3)c3n2CC(F)(F)F]
> 10 µM: IC50 (5-HT2A) | IC50 (5-HT2B [1]) | EC50 (H1) | EC50 (D2L [2]) | EC50 (ETB [3]) | EC50 (Alpha2A) | EC50 (M2) | IC50 (ETB [4]) | IC50 (D2L [5]) | IC50 (P2Y) | EC50 (5-HT2B [6]) | EC50 (A1) | EC50 (5-HT1A)

Cn1nccc1C(=O)Nc1nc2ccc(C#N)cc2n1CC(F)(F)F [Compound 30, O=C(c1ccnn1C)Nc2nc(ccc(C#N)c3)c3n2CC(F)(F)F]
> 10 µM: IC50 (5-HT2A) | IC50 (5-HT2B [1]) | EC50 (H1) | EC50 (D2L [2]) | EC50 (ETB [3]) | EC50 (Alpha2A) | EC50 (M2) | IC50 (ETB [4]) | IC50 (D2L [5]) | IC50 (P2Y) | EC50 (5-HT2B [6]) | EC50 (A1) | EC50 (5-HT1A)

COc1ccc(C(=O)Nc2nc3ccc(C#N)cc3n2CC(F)(F)F)cn1 [Compound 43, O=C(c1ccc(OC)nc1)Nc2nc(ccc(C#N)c3)c3n2CC(F)(F)F]
> 10 µM: IC50 (5-HT2A) | IC50 (5-HT2B [1]) | EC50 (H1) | EC50 (D2L [2]) | EC50 (ETB [3]) | EC50 (Alpha2A) | EC50 (M2) | IC50 (ETB [4]) | IC50 (D2L [5]) | IC50 (P2Y) | EC50 (5-HT2B [6]) | EC50 (A1) | EC50 (5-HT1A)
